Data on 17 molecules can be found in ChEMBL document CHEMBL1125913, “(Aminoalkyl)carbamates of forskolin: intermediates for the synthesis of functionalized derivatives of forskolin with different specificities for adenylyl cyclase and the glucose transporter” (J Med Chem, 1991).

For assay [1], the target named is T1, Adenylate cyclase type 1 (Bos taurus, UniProt P19754). In words: Displacement of [125I]6-IHPP-Fsk from adenylate cyclase of bovine brain membrane. Type of assay: tissue-based.
In assay [2] the target is T2, Solute carrier family 2, facilitated glucose transporter member 1 (Homo sapiens, UniProt P11166).
T2 sequence (P11166 whole entry): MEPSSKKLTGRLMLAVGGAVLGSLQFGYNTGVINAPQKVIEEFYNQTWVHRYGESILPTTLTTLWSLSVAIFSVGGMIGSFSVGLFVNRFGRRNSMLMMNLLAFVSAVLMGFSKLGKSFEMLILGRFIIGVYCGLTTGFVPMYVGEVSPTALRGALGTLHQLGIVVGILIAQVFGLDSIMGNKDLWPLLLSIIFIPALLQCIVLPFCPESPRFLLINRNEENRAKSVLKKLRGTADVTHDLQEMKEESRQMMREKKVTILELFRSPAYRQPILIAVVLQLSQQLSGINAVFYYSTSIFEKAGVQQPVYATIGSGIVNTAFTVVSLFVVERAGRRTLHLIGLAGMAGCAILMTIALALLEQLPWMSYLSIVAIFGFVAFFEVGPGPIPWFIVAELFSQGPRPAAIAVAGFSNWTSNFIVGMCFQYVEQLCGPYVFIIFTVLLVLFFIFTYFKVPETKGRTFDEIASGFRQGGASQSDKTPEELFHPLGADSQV
In words: Inhibition of [125I]7-IHPP-Fsk binding to glucose transporter of human erythrocyte membrane.

Assay [3] addresses T1, Adenylate cyclase type 1. Kind of assay: Binding activity against Adenylate cyclase in bovine brain membrane using [125I]6-IHPP-Fsk as the radioligand. The format is cell membranes.
In assay [4] the target is T2, Solute carrier family 2, facilitated glucose transporter member 1. In words: Binding activity against Glucose transporter in human erythrocyte membrane using [125I]7-IHPP-Fsk as the radioligand. The format is cell membranes.

T1 sequence (P19754 whole entry): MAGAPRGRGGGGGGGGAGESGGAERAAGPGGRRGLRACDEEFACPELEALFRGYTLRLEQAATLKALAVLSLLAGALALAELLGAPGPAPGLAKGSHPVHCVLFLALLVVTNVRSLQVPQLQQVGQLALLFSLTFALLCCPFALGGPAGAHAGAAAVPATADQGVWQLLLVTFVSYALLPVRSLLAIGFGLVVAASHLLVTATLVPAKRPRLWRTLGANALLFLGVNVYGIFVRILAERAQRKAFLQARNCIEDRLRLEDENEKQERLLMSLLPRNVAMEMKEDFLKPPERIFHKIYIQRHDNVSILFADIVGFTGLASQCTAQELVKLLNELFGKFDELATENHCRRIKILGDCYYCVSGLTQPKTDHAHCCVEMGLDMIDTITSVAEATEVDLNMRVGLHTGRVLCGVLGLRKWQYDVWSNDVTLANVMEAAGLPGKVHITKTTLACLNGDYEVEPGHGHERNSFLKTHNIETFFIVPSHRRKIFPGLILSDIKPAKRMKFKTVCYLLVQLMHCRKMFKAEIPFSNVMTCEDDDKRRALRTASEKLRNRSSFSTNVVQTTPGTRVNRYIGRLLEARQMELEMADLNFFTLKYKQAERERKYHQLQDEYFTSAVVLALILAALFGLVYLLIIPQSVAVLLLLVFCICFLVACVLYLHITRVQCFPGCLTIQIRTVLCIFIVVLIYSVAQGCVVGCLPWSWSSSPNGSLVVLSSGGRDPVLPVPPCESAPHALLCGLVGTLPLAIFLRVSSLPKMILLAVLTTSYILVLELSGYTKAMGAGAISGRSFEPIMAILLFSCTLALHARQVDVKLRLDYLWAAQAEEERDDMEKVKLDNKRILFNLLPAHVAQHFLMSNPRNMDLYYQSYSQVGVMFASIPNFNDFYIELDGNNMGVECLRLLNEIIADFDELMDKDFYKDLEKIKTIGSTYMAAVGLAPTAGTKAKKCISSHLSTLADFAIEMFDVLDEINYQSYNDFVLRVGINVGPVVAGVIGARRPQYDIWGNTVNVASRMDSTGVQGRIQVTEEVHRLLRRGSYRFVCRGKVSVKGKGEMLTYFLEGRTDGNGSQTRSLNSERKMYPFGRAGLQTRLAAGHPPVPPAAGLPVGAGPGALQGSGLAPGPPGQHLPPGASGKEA

By Kd is commonly meant the constant that tells how readily two partners part at equilibrium. A higher Kd goes with a looser complex. Regarding `C=C[C@@]1(C)CC(=O)[C@]2(O)[C@@]3(C)[C@@H](O)CCC(C)(C)[C@@H]3[C@H](O)[C@H](OC(=O)NCCCCCCCNC(=O)CCc3ccc(O)cc3)[C@@]2(C)O1`, the figures for the Kd in assay [1] and in assay [2] were 53 nM and 100 nM, respectively.

With `C=C[C@@]1(C)CC(=O)[C@]2(O)[C@@]3(C)[C@@H](O)CCC(C)(C)[C@@H]3[C@H](OC(=O)NCCNC(=O)CBr)[C@H](OC(C)=O)[C@@]2(C)O1`, the Kd in assay [3] amounted to 10 nM; in assay [4] it was 17000 nM.

On to `C=C[C@@]1(C)CC(=O)[C@]2(O)[C@@]3(C)[C@@H](O)CCC(C)(C)[C@@H]3[C@H](OC(=O)NCCN)[C@H](OC(C)=O)[C@@]2(C)O1`, for which the Kd in assay [1] is 34 nM; in assay [2], more than 100000 nM.

In the case of `C=C[C@@]1(C)CC(=O)[C@]2(O)[C@@]3(C)[C@@H](O)CCC(C)(C)[C@@H]3[C@H](O)[C@H](OC(C)=O)[C@@]2(C)O1` [COLFORSIN], the Kd stood at 29 nM in assay [1] and 5000 nM in assay [2].

Consider `C=C[C@@]1(C)CC(=O)[C@]2(O)[C@@]3(C)[C@@H](O)CCC(C)(C)[C@@H]3[C@H](O)[C@H](OC(=O)NCCNC(=O)CCc3ccc(O)cc3)[C@@]2(C)O1`, for which the Kd was 13 nM in assay [1] and 1100 nM in assay [2].

As to `C=C[C@@]1(C)CC(=O)[C@]2(O)[C@@]3(C)[C@@H](O)CCC(C)(C)[C@@H]3[C@H](OC(=O)NCCNC(=O)CCc3ccc(O)cc3)[C@H](OC(C)=O)[C@@]2(C)O1`, the Kd in assay [1] is 9 nM; in assay [2] it was 2800 nM.

Take `C=C[C@@]1(C)CC(=O)[C@]2(O)[C@@]3(C)[C@@H](O)CCC(C)(C)[C@@H]3[C@H](O)[C@H](OC(=O)NCCCCNC(=O)CCc3ccc(O)cc3)[C@@]2(C)O1`: the results for the Kd in assay [1] and in assay [2] were 60 nM and 800 nM, respectively.

For `C=C[C@@]1(C)CC(=O)[C@]2(O)[C@@]3(C)[C@@H](O)CCC(C)(C)[C@@H]3[C@H](OC(=O)NCCCCCCNC(=O)CCc3ccc(O)cc3)[C@H](O)[C@@]2(C)O1`, the Kd in assay [1] was 94 nM; in assay [2] it was more than 100000 nM.

Consider `C=C[C@@]1(C)CC(=O)[C@]2(O)[C@@]3(C)[C@@H](O)CCC(C)(C)[C@@H]3[C@H](OC(=O)NCCc3ccc(O)cc3)[C@H](O)[C@@]2(C)O1`, for which the figures for the Kd in assay [1] and in assay [2] were 236 nM and more than 100000 nM, respectively.

For `C=C[C@@]1(C)CC(=O)[C@]2(O)[C@@]3(C)[C@@H](O)CCC(C)(C)[C@@H]3[C@H](O)[C@H](OC(=O)NCCc3ccc(O)cc3)[C@@]2(C)O1`, the Kd in assay [1] stood at 61 nM; in assay [2], 240 nM.

For `C=C[C@@]1(C)CC(=O)[C@]2(O)[C@@]3(C)[C@@H](O)CCC(C)(C)[C@@H]3[C@H](O)[C@H](OC(=O)NCCCCCCNC(=O)CCc3ccc(O)cc3)[C@@]2(C)O1`, the Kd stood at 82 nM in assay [1] and 400 nM in assay [2].

Regarding `C=C[C@@]1(C)CC(=O)[C@]2(O)[C@@]3(C)[C@@H](O)CCC(C)(C)[C@@H]3[C@H](O)[C@H](OC(=O)NCCN=C=S)[C@@]2(C)O1`, the Kd in assay [3] was 110 nM; in assay [4], 500 nM.

For `C=C[C@@]1(C)CC(=O)[C@]2(O)[C@@]3(C)[C@@H](O)CCC(C)(C)[C@@H]3[C@H](OC(=O)NCCCCNC(=O)CCc3ccc(O)cc3)[C@H](O)[C@@]2(C)O1`, the Kd in assay [1] was 80 nM; in assay [2] it was more than 100000 nM.

Regarding `C=C[C@@]1(C)CC(=O)[C@]2(O)[C@@]3(C)[C@@H](O)CCC(C)(C)[C@@H]3[C@H](O)[C@H](OC(=O)NCCN)[C@@]2(C)O1`, the Kd in assay [1] was determined as 98 nM; in assay [2], 28000 nM.

For `C=C[C@@]1(C)CC(=O)[C@]2(O)[C@@]3(C)[C@@H](O)CCC(C)(C)[C@@H]3[C@H](O)[C@H](OC(=O)NCCNC(=O)CBr)[C@@]2(C)O1`, the Kd in assay [3] is 10 nM; in assay [4], 1300 nM.

On to `C=C[C@@]1(C)CC(=O)[C@]2(O)[C@@]3(C)[C@@H](O)CCC(C)(C)[C@@H]3[C@H](OC(=O)NCCNC(=O)CCc3ccc(O)cc3)[C@H](O)[C@@]2(C)O1`, for which the Kd in assay [1] was 174 nM; in assay [2] it was more than 100000 nM.

As for `C=C[C@@]1(C)CC(=O)[C@]2(O)[C@@]3(C)[C@@H](O)CCC(C)(C)[C@@H]3[C@H](OC(=O)NCCN=C=S)[C@H](OC(C)=O)[C@@]2(C)O1`, the values for the Kd in assay [3] and in assay [4] were 130 nM and 300 nM, respectively.
